This is an account of results in US11912723B2, “KRAS modulators and uses thereof” (Quanta Therapeutics, Inc., priority 2022, dated 2024).

Experiment [1] deals with T1, GST-tagged KRAS G12D (2-169) (Homo sapiens, UniProt P01116, G12D).
T1 construct: GST-tagged KRAS^G12D (2-169, Reaction Biology, MSC-11-539); purchased Reaction Biology MSC-11-539 (KRAS G12D); MSC-11-502 (SOS1cat)
In words: Nucleotide exchange assay (NEA), HTRF of SOS-mediated GTP-DY-647P1 binding. The class given is biochemical. Particulars: 5 nM GST-KRAS G12D, 20 nM SOScat, 150 nM GTP; compound 1 h at RT. The method in brief: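 After 1 h RT preincubation of compound with KRAS, SOS1cat (20 nM final) and fluorescent GTP analog (150 nM) were added to 5 nM KRAS; HTRF (anti-GST Tb donor) followed at RT for up to 90 min. % inhibition relative to DMSO and no-SOS1 blank, 4-parameter curve fit.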

The target of a further experiment is T2, KRAS G12D/RAF1 (Homo sapiens, UniProt P01116, G12D).
T2 construct: KRAS (1-169) proteins were expressed in E. coli at 18° C; His6-MBP (N, cleaved yes); made in house; host or cells: E. coli
T2 sequence (P01116 1-169 isoform P01116-2 G12D): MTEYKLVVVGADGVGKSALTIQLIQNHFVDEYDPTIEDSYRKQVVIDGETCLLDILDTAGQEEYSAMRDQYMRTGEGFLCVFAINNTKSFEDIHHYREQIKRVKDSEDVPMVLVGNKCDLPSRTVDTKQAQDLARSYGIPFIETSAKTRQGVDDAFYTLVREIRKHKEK
In words: Protein-protein interaction (PPI) HTRF assay KRAS G12D/RAF1. It is filed as binding. The settings on record: KRAS G12D/RAF1, GppNHp-loaded KRAS; 30 minutes pre-incubation. The method in brief: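 IC50 values come from the 665/615 HTRF ratio, scaled between no-compound (0% inhibition) and untagged RAF1 (100%). GppNHp-exchanged, biotinylated RAS (1-169) solution at 16 nM met compound for 30 min at room temperature. Then 16 nM His-tagged RAF1 (52-131) donor solution was added and incubated 1 h.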

T1 sequence (P01116 2-169 isoform P01116-2 G12D): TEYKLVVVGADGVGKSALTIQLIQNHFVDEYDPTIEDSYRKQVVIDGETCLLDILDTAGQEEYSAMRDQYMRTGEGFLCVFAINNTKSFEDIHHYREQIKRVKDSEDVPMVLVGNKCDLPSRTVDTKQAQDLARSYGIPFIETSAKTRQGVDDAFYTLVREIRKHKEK

On to `CN(C)C(=O)c1nn2c(c1Cl)CN(c1nc(OC[C@@]34CCCN3C[C@H](F)C4)nc3c1CO[C@@]1(CCc4c(Cl)cccc41)C3)CCC2` [Compound 36, 3-chloro-5-[(7S)-4′-chloro-2-[[(2R,8S)-2-fluoro-1,2,3,5,6,7-hexahydropyrrolizin-8-yl]methoxy]spiro[5,8-dihydropyrano[4,3-d]pyrimidine-7,1′-indane]-4-yl]-N,N-dimethyl-4,6,7,8-tetrahydropyrazolo[1,5-a][1,4]diazepine-2-carboxamide], for which the IC50 was below 10 nM in experiment [1] and 10000 to 100000 nM on KRAS G12D/RAF1.
In the same order, the values of `CN(C)C(=O)c1cc2n(n1)CCCN(c1nc(OC[C@@]34CCCN3C[C@H](F)C4)nc3c1COC1(CCc4ccc(O)cc41)C3)C2` (stereo partly shown) [Compound 32] are 10 to 100 nM and above 100000 nM.
In the same order, the values of `CN1Cc2c(nc(OC[C@@]34CCCN3C[C@H](F)C4)nc2N2CCCn3nc(CC#N)c(Cl)c3C2)C[C@]12CCCc1ccccc12` [Compound 98, 2-[3-chloro-5-[(7S)-2-[[(2R,8S)-2-fluoro-1,2,3,5,6,7-hexahydropyrrolizin-8-yl]methoxy]-6-methyl-spiro[5,8-dihydropyrido[4,3-d]pyrimidine-7,1′-tetralin]-4-yl]-4,6,7,8-tetrahydropyrazolo[1,5-a][1,4]diazepin-2-yl]acetonitrile] are below 10 nM and above 100000 nM.
In the same order, the values of `CN1Cc2c(nc(OC[C@@]34CCCN3C[C@H](F)C4)nc2N2CCC[C@]3(C2)NC(=O)NC3=O)C[C@]12CCCc1ccccc12` [Compound 71, (5R)-9-[(7S)-2-[[(2R,8S)-2-fluoro-1,2,3,5,6,7-hexahydropyrrolizin-8-yl]methoxy]-6-methyl-spiro[5,8-dihydropyrido[4,3-d]pyrimidine-7,1′-tetralin]-4-yl]-1,3,9-triazaspiro[4.5]decane-2,4-dione] are 100 to 1000 nM and above 100000 nM.
Turning to `CN1Cc2c(nc(OC[C@@]34CCCN3C[C@H](F)C4)nc2N2CCCn3nc(-c4nc5ccccc5n4C)cc3C2)C[C@]12CCCc1ccccc12` [Compound 82, (7S)-2-[[(2R,8S)-2-fluoro-1,2,3,5,6,7-hexahydropyrrolizin-8-yl]methoxy]-6-methyl-4-[2-(1-methylbenzimidazol-2-yl)-4,6,7,8-tetrahydropyrazolo[1,5-a][1,4]diazepin-5-yl]spiro[5,8-dihydropyrido[4,3-d]pyrimidine-7,1′-tetralin]], the 50% inhibitory concentration (IC50) was 10 to 100 nM in experiment [1] and above 100000 nM against KRAS G12D/RAF1.
With `CONC(=O)c1cc2n(n1)CCCN(c1nc(OC[C@@]34CCCN3C[C@H](F)C4)nc3c1CO[C@@]1(CCc4c(Cl)cccc41)C3)C2` [Compound 31, N-methoxy-5-[(7S)-4′-chloro-2-[[(2R,8S)-2-fluoro-1,2,3,5,6,7-hexahydropyrrolizin-8-yl]methoxy]spiro[5,8-dihydropyrano[4,3-d]pyrimidine-7,1′-indane]-4-yl]-4,6,7,8-tetrahydropyrazolo[1,5-a][1,4]diazepine-2-carboxamide], the IC50 in experiment [1] was 10 to 100 nM; against KRAS G12D/RAF1, above 100000 nM.
On the same counts, the results for `CN1Cc2c(nc(OC[C@@]34CCCN3C[C@H](F)C4)nc2N2CCCn3nc(-c4nc5c(F)cccc5n4C)cc3C2)C[C@]12CCCc1ccccc12` [Compound 83, (7S)-2-[[(2R,8S)-2-fluoro-1,2,3,5,6,7-hexahydropyrrolizin-8-yl]methoxy]-4-[2-(4-fluoro-1-methyl-benzimidazol-2-yl)-4,6,7,8-tetrahydropyrazolo[1,5-a][1,4]diazepin-5-yl]-6-methyl-spiro[5,8-dihydropyrido[4,3-d]pyrimidine-7,1′-tetralin]] are 10 to 100 nM and above 100000 nM.
As for `CN1Cc2c(nc(OC[C@@]34CCCN3C[C@H](F)C4)nc2N2C[C@H]3CC[C@@H](C2)[C@@H]3N)C[C@]12CCCc1ccccc12` [Compound 85, (1R,5S)-3-[(7S)-2-[[(2R,8S)-2-fluoro-1,2,3,5,6,7-hexahydropyrrolizin-8-yl]methoxy]-6-methyl-spiro[5,8-dihydropyrido[4,3-d]pyrimidine-7,1′-tetralin]-4-yl]-3-azabicyclo[3.2.1]octan-8-amine], the figures for the concentration for half-maximal inhibition (IC50) (in experiment [1]; on KRAS G12D/RAF1) were 1000 to 20000 nM and above 100000 nM, respectively.
